Assay results: US8722910B2, “Diyne compositions” (Evolva AG, priority 2009, dated 2014)
In brackets after ≈: the same amount, converted by molar mass. Where two headings read alike, the source gives them in different places.

Columns and labels:
[1] = test system: C. albicans ATCC-24433; test: MIC versus reference Candida strains (broth micro dilution); design: MICs (100% inhibition): unit not given beside the values; settings: for MIC: Candida albicans
[2] = test system: C. albicans ATCC-90028; test: as above; design: MICs (100% inhibition): unit not given beside the values; settings: for MIC: Candida albicans
[3] = test system: Fusarium verticillioides; test: In vitro mycelial growth inhibition, poisoned plate; format: cell-based; settings: 50 μg/ml
[4] = test system: Macrophomina phaseolina; test: as above; format: cell-based; settings: 100 μg/ml
[5] = test system: Rhizoctonia solani; test: as above; format: cell-based; settings: 50 μg/ml
[6] = test system: C. tropicalis ATCC-750; test: MIC versus reference Candida strains (broth micro dilution); design: MICs (100% inhibition): unit not given beside the values; settings: for MIC: Candida tropicalis
[7] = test system: Fusarium oxysporum; test: Mycelial growth inhibition, disc diffusion assay; format: cell-based
[8] = test system: Botryodiplodia theobromae; test: In vitro mycelial growth inhibition, poisoned plate; format: cell-based; settings: Lasiodiplodia theobromae, 50 μg/ml
[9] = test system: Pythium aphanidermatum; test: as above; format: cell-based; settings: 50 μg/ml
[10] = test system: C. glabrata ATCC-90030; test: MIC versus reference Candida strains (broth micro dilution); design: MICs (100% inhibition): unit not given beside the values; settings: for MIC: Nakaseomyces glabratus
[11] = test system: C. parapsilosis ATCC-22019; test: as above; design: MICs (100% inhibition): unit not given beside the values; settings: for MIC: Lodderomyces parapsilosis
[12] = test system: Sclerotium rolfsii; test: In vitro mycelial growth inhibition, poisoned plate; format: cell-based; settings: Agroathelia rolfsii, 50 μg/ml
[13] = test system: C. parapsilosis ATCC-90018; test: MIC versus reference Candida strains (broth micro dilution); design: MICs (100% inhibition): unit not given beside the values; settings: for MIC: Lodderomyces parapsilosis
[14] = test system: C. krusei ATCC-6258; test: as above; design: MICs (100% inhibition): unit not given beside the values; settings: for MIC: Pichia kudriavzevii
[15] = test system: M. grisea; format: cell-based; settings: sterile water with different concentrations of test compound
[16] = test system: Uncinula necator; test: Leaf disk assay; settings: Uncinula necator (leaf disc assay)
Procedure: Leaf disk assay was carried out by the cavity well plate method for powdery mildew disease of grapes. Leaf disks of 14 mm in diameter were cut with a cork borer from the healthy leaves (second and third from the tip) of grapevine plants, and were dipped in 100 μl of each test compound at different concentrations for two minutes, as in treatment details shown below. The control leaf disks were dipped only in sterile water for two minutes. The compound treated leaf disks were placed, abaxial side up, in TC-24 well plates containing water agar medium. The disks were inoculated by placing 20 μl of inoculum (1-5×10^6 spores/ml) on the centre of the disk. After inoculation, the cavity well plates were incubated at 20° C. for 10 days. After incubation, the powdery mildew lesions on the leaf disks were rated to 0-9 scale, in which, 0 was no visible symptoms and 9 represented more than 50% leaf area with mildew growth/lesion. Percent disease index (PDI) was calculated as follows: […]
After the observation, the conidia were washed from the leaf disks in known volume of a fixative solution of ethanol-formaldehyde-acetic acid (90:5:5, v/v/v) and counted with a hemocytometer.

[17] = test system: C. albicans SC5314; test: MIC versus reference Candida strains (broth micro dilution); format: cell-based
[18] = test system: Magnaporthe grisea; test: microbe, parasite or virus in culture; format: cell-based; settings: Pyricularia oryzae, read-out: % Mycelial growth Inhibition
[19] = test system: Colletotrichum gloeosporioides; test: Paper disc in the path of pathogen growth, growth and sporulation; format: cell-based; settings: compound on sterile paper disc
[20] = test system: Puccinia arachidis; test: Leaf disk assay; settings: Puccinia arachidis (leaf disc assay)
[21] = test system: Botrytis cinerea; test: In vitro mycelial growth inhibition, poisoned plate; format: cell-based; settings: 2.5 μg/ml
Procedure: (§1) Growth of fungi was carried out in potato dextrose agar media at […], and test compound was added at different concentrations and at pH 5.8 for compound X″ and at pH 7.0 for its potassium salt, compound XII″, with a water control instead of test compound. Radial mycelial growth was measured at regular intervals 4, 8, 12 and 16 days for slow growing fungi and at 3, 6 and 8 days for fast growing fungi. When the mycelia reached the end of the plate, measurements were stopped. Morphological changes in the hyphal growth and sporulation patterns were also observed. For dose response studies a range of concentrations and a range of inhibition obtained falling below and above 50% inhibition (see Table 23 below)

[22] = test system: Colletotrichum gloeosporioides (chili strain); test: as above; format: cell-based; settings: 5 μg/ml
Procedure: as §1

[23] = test system: Colletotrichum gloeosporioides (mango strain); test: as above; format: cell-based; settings: 5 μg/ml
Procedure: as §1

[24] = test system: Alternaria solani; test: as above; format: cell-based; settings: 50 μg/ml
Procedure: as §1

[25] = test system: Botrytis cinerea; test: Changes in the hyphal tips; format: cell-based; settings: compound in the media, 2 μg/ml
Source text: Apical dominance is an important criterion for growth of hyphae of fungi: at the apical tip of the mycelia branching is not seen near the growing tip. Apical dominance is maintained but branching of hyphae will start at sub-apical point, a distance away from the growth point. Under abnormal conditions of stress, apical dominance is lost, extensive branching begins, resulting in the growth of the fungal mycelia being arrested. When the test compound is incorporated in the media in which the fungi is present, hyphal tip splitting and branching is seen with loss of apical dominance and polarity. […] Hyphae from the inoculated disc start growing against gravity and are thicker than the normal hyphae seen in the control (the two upper pictures).

[26] = test system: Plasmopara viticola; format: cell-based; design: dose or concentration left out as unconfirmed; settings: Plasmopara viticola (spore germination)

## O=C(O)CCCCCCCCCC#CC#Cc1ccco1 [Compound X″]
[1]; C. albicans ATCC 24433, CLSI M27-A3, growth inhibition of 100%, 35° C., 24 hrs
  MIC breakpoints: 0.02 µg/mL (≈ 0.0698 µM)
[1]; C. albicans ATCC 24433, NCCLS M27A, 35° C., 24 hrs
  MICs (100% inhibition): 20
[1]; ATCC24433, read-out: minimal inhibitory concentrations
  MIC: 0.02 µg/mL (≈ 0.0698 µM)
[2]; C. albicans ATCC 90028, CLSI M27-A3, growth inhibition of 100%, 35° C., 24 hrs
  MIC breakpoints: 0.02 µg/mL (≈ 0.0698 µM)
[2]; C. albicans ATCC 90028, NCCLS M27A, 35° C., 24 hrs
  MICs (100% inhibition): 20
[2]; ATCC90028, read-out: minimal inhibitory concentrations
  MIC: 0.02 µg/mL (≈ 0.0698 µM)
[3]
  inhibition at 50 µg/mL: 14%
[4]
  inhibition at 100 µg/mL: 15%
[5]
  inhibition at 50 µg/mL: 19%
[6]; C. tropicalis ATCC 750, CLSI M27-A3, growth inhibition of 100%, 35° C., 24 hrs
  MIC breakpoints: 0.08 µg/mL (≈ 0.279 µM)
[6]; C. tropicalis ATCC 750, NCCLS M27A, 35° C., 24 hrs
  MICs (100% inhibition): 80
[6]; ATCC750, read-out: minimal inhibitory concentrations
  MIC: 0.08 µg/mL (≈ 0.279 µM)
[7]
  % Mycelial Growth Inhibition: No inhibition
[8]
  inhibition at 50 µg/mL: 15%
[9]
  % Mycelial Growth Inhibition: No inhibition
[10]; C. glabrata ATCC 90030, CLSI M27-A3, growth inhibition of 100%, 35° C., 24 hrs
  MIC breakpoints: 2.56 µg/mL (≈ 8.94 µM)
[10]; C. glabrata ATCC 90030, NCCLS M27A, 35° C., 24 hrs
  MICs (100% inhibition): 2560
[10]; ATCC90030, read-out: minimal inhibitory concentrations
  MIC: 2.56 µg/mL (≈ 8.94 µM)
[11]; C. parapsilosis ATCC 22019, CLSI M27-A3, growth inhibition of 100%, 35° C., 24 hrs
  MIC breakpoints: >10.24 µg/mL
[11]; C. parapsilosis ATCC 22019, NCCLS M27A, 35° C., 24 hrs
  MICs (100% inhibition): >10240
[11]; ATCC22019, read-out: minimal inhibitory concentrations
  MIC: > 10.2 µg/mL
[12]
  inhibition at 50 µg/mL: 5%
[13]; C. parapsilosis ATCC 90018, CLSI M27-A3, growth inhibition of 100%, 35° C., 24 hrs
  MIC breakpoints: >10.24 µg/mL
[13]; C. parapsilosis ATCC 90018, NCCLS M27A, 35° C., 24 hrs
  MICs (100% inhibition): >10240
[13]; ATCC90018, read-out: minimal inhibitory concentrations
  MIC: > 10.2 µg/mL
[14]; C. krusei ATCC 6258, CLSI M27-A3, growth inhibition of 100%, 35° C., 24 hrs
  MIC breakpoints: 1.28 µg/mL (≈ 4.47 µM)
[14]; C. krusei ATCC 6258, NCCLS M27A, 35° C., 24 hrs
  MICs (100% inhibition): 1280
[14]; ATCC6258, read-out: minimal inhibitory concentrations
  MIC: 1.28 µg/mL (≈ 4.47 µM)

## O=C([O-])CCCCCCCCCC#CC#Cc1ccco1.[K+] [Compound XII″, Potassium 14-(furan-2-yl)tetradeca-11,13-diynoate]
[1]; ATCC24433
  MIC: 0.01 µg/mL
[2]; ATCC90028
  MIC: 0.01 µg/mL
[15]
  spores that did not germinate: more than 50%
[6]; ATCC750
  MIC: 0.01 µg/mL
[16]; 10 μg/ml
  Reduction in % disease index/germination: 65%
[16]; 20 μg/ml
  Reduction in % disease index/germination: 100%
[17]
  MIC: 0.01 µg/mL
[18]
  inhibition at 5 µg/mL: 27%
[19]
  growth of the mycelia: the growth of the mycelia is arrested
  sporulation around the loaded disc: no sporulation observed
[10]; ATCC90030
  MIC: 0.32 µg/mL
[20]; 10 μg/ml
  Reduction in % disease index/germination: 67%
[20]; 20 μg/ml
  Reduction in % disease index/germination: 75%
[11]; ATCC22019
  MIC: > 10.2 µg/mL
[13]; ATCC90018
  MIC: 5.12 µg/mL
[21]
  inhibition at 2.5 µg/mL: 76%
[22]
  inhibition at 5 µg/mL: 10%
[23]
  inhibition at 5 µg/mL: 28%
[24]
  inhibition at 50 µg/mL: 42%
[25]
  toxicity to the fungus, hyphal changes: toxic to the fungus Botrytis cinerea
[14]; ATCC6258
  MIC: 0.64 µg/mL
[26]
  Reduction in % disease index/germination: 93%
